From publication PMC6204753, “Non-native autoinducer analogs capable of modulating the SdiA quorum sensing receptor in Salmonella enterica serovar Typhimurium” (Beilstein Journal of Organic Chemistry, 2018)
Where “and” joins values, the source holds several entries; their conditions need not be identical. Equal entries are not always repeated. Entries after “also recorded” stand apart in the source; their conditions may differ. Marks after values point to notes of the source that are not given here.

Experiments:
Type in all cases: cell-based
[1] = molecular target: T1, SdiA (Salmonella enterica subsp. enterica serovar Typhimurium, UniProt O66040); experiment: S. Typhimurium-pJNS25 SdiA reporter, agonism (luminescence); details: for Emax: read-out: activation (%); for EC50: agonism dose–response, read-out: EC50; for fold increase: potency of thiolactone over corresponding lactone (EC50 ratio)
From the text: Biological assays for SdiA activity. Cell-based reporter strains that rely on detecting the transcriptional activity of LuxR-type receptors are commonly used to assess the activity of exogenous ligands. We used the S. Typhimurium-pJNS25 reporter strain constructed by Smith and Ahmer and also used by Janssens et al. to examine SdiA activity. This strain naturally produces SdiA and contains a reporter plasmid with the promoter region for srgE fused to the luxABCDE operon of V. fischeri (see Experimental section for details of all strains and plasmids). SdiA activity is thus reported by the production of luciferase and resulting bioluminescence. We also prepared an SdiA reporter in E. coli (JLD271-pJN105SE-pSC11SE) to examine S. Typhimurium SdiA activity in an alternate background and with a different reporter gene output. […] This reporter construct uses an arabinose inducible promoter to produce S. Typhimurium SdiA and the promoter region for srgE fused to lacZ to report SdiA activity. SdiA activity is then measured using standard β-galactosidase assays. In both reporter strains, signal was normalized to the difference between the positive control (10 μM OOHL) and the negative control (1% DMSO; no compound).
Salmonella SdiA reporter assay. S. Typhimurium-pJNS25 was grown 16–18 h overnight in LB, diluted 1:100 in fresh LB medium, and then incubated for 6 h at 37 °C with shaking at 200 rpm in the presence of compounds (1% DMSO). […] All compounds were screened at 100 μM and 1 μM in triplicate in agonism and antagonism assays. […] Dose–response analyses were performed by preparing dilutions of compounds in DMSO and testing each concentration in the agonism or antagonism assays. Competition dose–response assays (data in Figure 5) were performed in the same manner as the antagonism assays, except instead of OOHL being added to the subculture, the antagonist being tested was added. Non-linear regression curve fits were generated using GraphPad Prism software (version 6) using variable slope (four parameter) dose–response analysis.

[2] = molecular target: T1, SdiA; experiment: S. Typhimurium-pJNS25 SdiA reporter, competitive antagonism against 10 nM L-OOHL; details: for inhibition at 1 µM: 1 μM compound, read-out: Antagonism 1 μM Inhibition (%); for inhibition at 1 µM / inhibition at 100 µM: average ± STD, change in activity from 10 nM 2 (OOHL); for inhibition at 100 µM: 100 μM compound, read-out: Antagonism 100 μM Inhibition (%); for Emax: 100% minus lowest % activity in presence of 10 nM L-OOHL (2)
Procedure, shortened: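 S. Typhimurium-pJNS25 (native SdiA, srgE promoter–luxCDABE) subcultured 1:100 in LB and incubated 6 h at 37 °C, 200 rpm, with compound (1% DMSO); antagonism run against 10 nM L-OOHL. Luminescence normalised between 10 μM OOHL and 1% DMSO controls; triplicates; four-parameter dose–response fits.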

[3] = molecular target: S. Typhimurium SdiA (Salmonella enterica subsp. enterica serovar Typhimurium, UniProt O66040); experiment: E. coli JLD271-pJN105SE-pSC11SE SdiA reporter, antagonism (β-galactosidase); details: for inhibition (%): E. coli reporter, against OOHL at its EC50 (1.5 nM), NA = not active
From the text: Biological assays for SdiA activity. Cell-based reporter strains that rely on detecting the transcriptional activity of LuxR-type receptors are commonly used to assess the activity of exogenous ligands. We used the S. Typhimurium-pJNS25 reporter strain constructed by Smith and Ahmer and also used by Janssens et al. to examine SdiA activity. This strain naturally produces SdiA and contains a reporter plasmid with the promoter region for srgE fused to the luxABCDE operon of V. fischeri (see Experimental section for details of all strains and plasmids). SdiA activity is thus reported by the production of luciferase and resulting bioluminescence. We also prepared an SdiA reporter in E. coli (JLD271-pJN105SE-pSC11SE) to examine S. Typhimurium SdiA activity in an alternate background and with a different reporter gene output. E. coli JLD271 is the sdiA mutant of K-12 E. coli. This reporter construct uses an arabinose inducible promoter to produce S. Typhimurium SdiA and the promoter region for srgE fused to lacZ to report SdiA activity. SdiA activity is then measured using standard β-galactosidase assays. In both reporter strains, signal was normalized to the difference between the positive control (10 μM OOHL) and the negative control (1% DMSO; no compound).
E. coli SdiA reporter assay. The β-galactosidase assay using the E. coli SdiA reporter was performed as reported previously, with minor modifications. The reporter strain was grown 16–18 h overnight in LB, diluted 1:10 in fresh LB medium, and incubated at 37 °C with shaking at 200 rpm until it reached an OD600 of 0.25. Expression of SdiA was induced by the addition of 4 mg/mL arabinose, and the culture was incubated in the presence of compounds (1% DMSO) for 4 h at 37 °C with shaking at 200 rpm. […] A 50 μL aliquot of culture from each well was lysed in 200 μL of Z-buffer and 8 μL of chloroform, and a 100 μL aliquot of this lysate was incubated with 25 μL of 4 mg/mL ONPG for 20 min at 30 °C before reading absorption at 420 nm and 550 nm using a Biotek Synergy 2 plate reader. Non-linear regression curve fits were generated using GraphPad Prism software (version 6) using variable slope (four parameter) dose–response analysis.

[4] = molecular target: T1, SdiA; experiment: Competition dose–response of OOHL (2) against antagonists in the S. Typhimurium SdiA reporter; details: for inhibition profile in competition assay (in words): against OOHL (2)
Protocol: We also submitted compounds 11, R8, and F45 to competition-type assays in the S. Typhimurium SdiA reporter to further characterize their activity profiles. […] The results are shown in Figure 5 (EC50 and maximal activity values listed in Supporting Information File 3).
Salmonella SdiA reporter assay. S. Typhimurium-pJNS25 was grown 16–18 h overnight in LB, diluted 1:100 in fresh LB medium, and then incubated for 6 h at 37 °C with shaking at 200 rpm in the presence of compounds (1% DMSO). For antagonism assays, OOHL (2) at its EC90 (10 nM, 0.1% DMSO) was added to the subculture immediately prior to adding the compound for testing. All compounds were screened at 100 μM and 1 μM in triplicate in agonism and antagonism assays. Raw luminescence values were divided by the OD600 and then normalized to the controls; negative (DMSO) and positive (10 μM OOHL) control samples were included in every assay plate and used to normalize assay results, setting the positive control to 100% and the negative control to 0%. Luminescence was measured using a Biotek Synergy 2 plate reader and Gen 5 software (version 1.05). Dose–response analyses were performed by preparing dilutions of compounds in DMSO and testing each concentration in the agonism or antagonism assays. Competition dose–response assays (data in Figure 5) were performed in the same manner as the antagonism assays, except instead of OOHL being added to the subculture, the antagonist being tested was added. Non-linear regression curve fits were generated using GraphPad Prism software (version 6) using variable slope (four parameter) dose–response analysis.

[5] = maximal activation of the antagonists (partial agonism), Table 3
[6] = maximal inhibition, read-out: inhibition (%)
[7] = maximal activity (efficacy) from agonism dose–response, 10 μM OOHL = 100%, DMSO = 0%

T1 sequence (O66040 entry or part of it): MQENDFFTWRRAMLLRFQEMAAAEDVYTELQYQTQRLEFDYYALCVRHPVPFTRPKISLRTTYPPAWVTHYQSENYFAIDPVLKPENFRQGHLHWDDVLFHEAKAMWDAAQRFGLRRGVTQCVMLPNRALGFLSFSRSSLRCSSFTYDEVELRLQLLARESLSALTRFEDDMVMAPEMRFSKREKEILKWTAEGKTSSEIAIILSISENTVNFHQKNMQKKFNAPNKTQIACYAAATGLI
Chain of S. Typhimurium SdiA (O66040 entry or part of it): as above

Structure (SMILES)	Emax [1, 5]	inhibition at 1 µM [2]	inhibition at 100 µM [2]	IC50 ([2]; against 10 nM L-OOHL (EC90))	Emax [2, 6]	EC50 [1]	Emax [1, 7]	also measured
O=C(CCc1cccc(I)c1)N[C@H]1CCOC1=O [E33]	67%	20 ± 6%	38 ± 10%	9640 nM	19%			
CSc1ccc(CCC(=O)N[C@H]2CCOC2=O)cc1 [E34]	66%	21 ± 15%	39 ± 8%		30%			
CCCCCC(=O)CC(=O)N[C@H]1CCSC1=O [F2]		-19 ± 12%	-19 ± 15%			0.7 nM	119%	fold increase [1]: 1.47^c
CCCCCCCC(=O)N[C@H]1CCSC1=O [F5]		3 ± 6%	0%			2.28 nM	79%	fold increase [1]: 8.12
CCCC(=O)N[C@H]1CCSC1=O [F8]		-5 ± 10%	-23 ± 11%			62.8 nM	91%	fold increase [1]: 9.20
O=C(Cc1cccc([N+](=O)[O-])c1)N[C@H]1CCSC1=O [F11]		-11 ± 7%	-16 ± 13%			2.47 nM	97%	fold increase [1]: 11.5
COc1ccc(CC(=O)N[C@H]2CCSC2=O)cc1 [F12]		-13 ± 10%	-21 ± 8%			38.8 nM	84%	fold increase [1]: 6.49
O=C(Cc1ccc(-c2ccccc2)cc1)N[C@H]1CCSC1=O [F13]	59%	23 ± 4%	46 ± 15%	2350 nM	51%			
CCOC(=O)CNC(=O)Cc1ccc(Br)cc1 [F39]	50%	27 ± 9%	53 ± 11%		55%			
CCOC(=O)CNC(=O)Cc1cccc([N+](=O)[O-])c1 [F40]	56%	21 ± 8%	43 ± 4%	27800 nM	33%			
CCOC(=O)CNC(=O)Cc1cccc(I)c1 [F45]	26%	8 ± 10%	92 ± 2%	28500 nM	87%			inhibition (%) [3]: failed to display antagonistic activity; inhibition profile in competition assay (in words) [4]: non-competitive inhibition profile; EC50 ([4]; antagonist at 0.1 μM): 1.77 nM; EC50 ([4]; antagonist at 1 μM): 1.33 nM; EC50 ([4]; antagonist at 10 μM): 4.11 nM
CCOC(=O)CNC(=O)Cc1ccc(OC)cc1 [F47]	61%	3 ± 14%	36 ± 10%		42%			
CCCCCCCCCCOc1ccc(C(=O)N[C@H]2CCOC2=O)cc1 [R7]	6%	8 ± 6%	43 ± 15%	3100 nM	51%			
CCCCCCCCCCCOc1ccc(C(=O)N[C@H]2CCOC2=O)cc1 [R8]	24%	18 ± 5%	67 ± 5%	44000 nM and 44200 nM	> 100%			inhibition at 0.0015 µM [3]: 106%; inhibition (%) [3]: fully inhibit SdiA activity; inhibition profile in competition assay (in words) [4]: competitive SdiA inhibition; EC50 ([4]; antagonist at 0.1 μM): 1.57 nM; EC50 ([4]; antagonist at 1 μM): 1.51 nM; EC50 ([4]; antagonist at 10 μM): 2.52 nM; EC50 ([4]; antagonist at 100 μM): 10.6 nM
CCCCCCCCCCCCOc1ccc(C(=O)N[C@H]2CCOC2=O)cc1 [R9]	6%	22 ± 10%	42 ± 13%		63%			
O=C(COc1ccc(I)cc1)N[C@H]1CCSC1=O [RN22]		-4 ± 9%	3 ± 9%			6.08 nM	93%	fold increase [1]: 1.71^c
CCCCCCC(CCCC)C(=O)N[C@H]1CCOC1=O (stereo partly drawn) [S2]	63%	48 ± 3%	2 ± 11%		32%			
O=C(CC1CCCCC1)N[C@H]1CCOC1=O [S7]		7 ± 14%	1 ± 7%			106 nM	89%	
O=C(CCCCCCCCCN=C=S)CC(=O)N[C@H]1CCOC1=O [compound 11, reference compound]	-33%	64 ± 6%	128 ± 1%	320 nM				IC50 ([2]; against 10 nM L-OOHL): 318 nM; IC50 [3]: 380 nM; inhibition at 0.0015 µM [3]: 130%; inhibition (%) [3]: fully inhibit SdiA activity; inhibition profile in competition assay (in words) [4]: both competitive and non-competitive inhibition; EC50 ([4]; antagonist at 0.1 μM): 72.3 nM; EC50 ([4]; antagonist at 1 μM): 220 nM; EC50 ([4]; antagonist at 10 μM): 1310 nM; EC50 ([4]; antagonist at 100 μM): 4670 nM
O=C(CCCOc1cccc(Br)c1)N[C@H]1CCSC1=O [compound 16, reference compound]		8 ± 14%	84 ± 6%	45000 nM				activity in the SdiA reporter assay (in words) ([1]; S. Typhimurium reporter): multimodal, or non-monotonic; Emax [1]: 48%; Emax ([2]; read-out: inhibition (%), maximal inhibition): 89%; inhibition (%) ([3]; 0.0015 µM): failed to display antagonistic activity; also recorded: did not display any activity
O=C(Nc1ccccc1NC(=O)c1cccc(Cl)c1)c1cccc(Cl)c1 [compound 20, reference compound]	47%	35 ± 18%	39 ± 17%		53%			
